The record followed here is ChEMBL document CHEMBL5344478, “Cytochrome bd oxidase: an emerging anti-tubercular drug target” (RSC Med Chem, 2024).

One may read the IC50 as the concentration that gives 50% inhibition.

Assay [1] can be described thus: Inhibition of Mycobacterium bovis BCG cytochrome bd oxidase with ATP synthase overexpression inverted membrane vesicles. The format is cell membranes, Mycobacterium tuberculosis variant bovis, Membrane vesicle.
The nature of assay [2]: Inhibition of wild type Mycobacterium bovis BCG cytochrome bd oxidase assessed as inhibition of oxygen consumption rate measured after 5 days by Methylene blue dye based assay. More on the design: species or system Mycobacterium tuberculosis variant bovis.

Regarding `c1ccc(CCNc2ncnc3ccccc23)cc1`, the IC50 in assay [1] turned out to be 11 µM.
In the case of `FC(F)(F)c1ccc(Oc2ccc(Nc3ncnc4ccccc34)cc2)cc1`, the half-maximal inhibitory concentration (IC50) was 0.5 µM in assay [1] and 0.8 µM in assay [2].
`NC(=O)NC(=O)c1nc(-c2cc3ccccc3o2)c(N)nc1N` had an IC50 in assay [1] of 21.2 µM.
`CCc1nc2ccc(Cl)cn2c1C(=O)NCc1ccc(N2CCC(c3ccc(OC(F)(F)F)cc3)CC2)cc1` [TELACEBEC] showed a half-maximal inhibitory concentration (IC50) in assay [1] of 6.2 µM.
